Test results: patent US20130059812A1 (priority 2010, published 2013)

Tests used:
wild-type HBV = assay: microbe, parasite or virus in culture; assay type: cell-based, Hepatitis B virus (HBV); conditions: Huh-7 cells, 4th day of transfection, clevudine 0.9 μM
Experimental: About 20˜24 hours before the transfection, Huh-7 cell lines were maintained on 6-well plates to be 4×10^5 cells/well with 70˜80% confluence and then cultured. 2 hours before the transfection, the culture medium was removed from the stabilized cells and replaced with a serum-free medium containing clevudine, adefovir dipivoxil or a combined preparation of clevudine and adefovir dipivoxil in a predetermined dilution to be 2 mL/well. Using lipofectamine (Invitrogen), the cells were transfected with wild-type HBV DNA to be 2 μg per well. The concentration of antiviral agents was 0.9 μM of clevudine, 6.3 μM of adefovir dipivoxil, 0.9 μM+6.3 μM of clevudine+adefovir dipivoxil or 1.8 μM+6.3 μM of clevudine+adefovir dipivoxil. About 5 hours after the transfection, the culture medium was replaced with that treated with the antiviral agents, and then the medium was replaced every 24 hours.
On the 4th day of the transfection, the cells were washed with cold PBS and then collected. […]
Electrophoresis was carried out with the separated HBV DNA on 1% agarose gel, which was then transferred to a positively charged nylon membrane. […] An antiviral effect of the combined formulation of clevudine and adefovir dipivoxil was determined using phosphor imager compared with single treatment of clevudine or adefovir dipivoxil.

HBV = assay: Antiviral efficacy test in the treatment of chronic hepatitis B patients; assay type: in vivo; conditions: n=20 per group
Experimental: A total of 40 patients were divided into two groups, to one of which 30 mg of clevudine was administered daily for 24 weeks (group treated with clevudine only; n=20). To another group, a combined formulation of 30 mg of clevudine and 10 mg of adefovir dipivoxil was administered daily for 12 weeks, then administration of adefovir dipivoxil was stopped and only 30 mg of clevudine was administered daily for the remaining period (group treated with combined formulation of clevudine+adefovir dipivoxil; n=20).

[1] = test system: patient-derived rtM204I mutant virus; assay type: cell-based, Hepatitis B virus (HBV); conditions: untreated control group = 100%, Huh-7 cells, 4th day, clevudine 0.9 μM, adefovir dipivoxil 6.3 μM, combination 0.9 μM+6.3 μM
Experimental: About 20˜24 hours before the transfection, Huh-7 cell lines were maintained on 6-well plates to be 4×10^5 cells/well with 70˜80% confluence and then cultured. 2 hours before the transfection, the culture medium was removed from the stabilized cells and replaced with a serum-free medium containing clevudine, adefovir dipivoxil or a combined formulation of clevudine and adefovir dipivoxil in a predetermined dilution to be 2 mL/well. Using lipofectamine (Invitrogen), the cells were transfected with HBV mutant DNA to be 2 μg per well. The concentration of antiviral agents was 0.9 μM of clevudine, 6.3 μM of adefovir dipivoxil, 0.9 μM+6.3 μM of clevudine+adefovir dipivoxil or 1.8 μM+6.3 μM of clevudine+adefovir dipivoxil. About 5 hours after the transfection, the culture medium was replaced with that treated with the antiviral agents, and then the medium was replaced every 24 hours.
On the 4th day of the transfection, the cells were washed with cold PBS and then collected. The collected cells were lysed with cold Hepes lysis buffer (1% NP-40) and then centrifuged. The supernatant was treated with nuclease to remove DNA of the transfected cells. Core protein of capsid form was precipitated with 26% PEG solution. The capsid protein was removed by 0.5% SDS solution and Proteinase K and then HBV DNA in the capsid was separated. […]

Question: Which inhibition at 0.9 µM (wild-type HBV; Hepatitis B virus, concentration of the combination not stated, read-out: inhibition rate of wild-type HBV replication) does the source give for `Cc1cn([C@H]2O[C@@H](CO)[C@H](O)[C@H]2F)c(=O)[nH]c1=O` [clevudine, 1-(2′-deoxy-2′-fluoro-β-L-arabinofuranosyl)thymine] here?
Answer: 34.1%

Question: And the “rate of wild-type HBV replication” value (wild-type HBV; untreated control group = 100%, adefovir dipivoxil 6.3 μM, concentration of the combination not stated (0.9 μM+6.3 μM or 1.8 μM+6.3 μM))?
Answer: 65.91%

Question: What about the “number of HBV DNA copy” value (HBV; 12 weeks after the administration, 30 mg clevudine daily, or 30 mg clevudine + 10 mg adefovir dipivoxil daily) of the same compound?
Answer: −2.67 log 10 copies/mL

Question: And the “number of HBV DNA copy” value (HBV; 24 weeks after the administration, 30 mg clevudine daily for 24 weeks, or combination for 12 weeks then only 30 mg clevudine daily)?
Answer: −4.15 log 10 copies/mL

Question: What about the “rate of mutant virus replication” value [1] of the same compound?
Answer: 87.43%
